Measurements: ChEMBL document CHEMBL1154899, “Synthesis and biological evaluation of caffeic acid 3,4-dihydroxyphenethyl ester” (J Nat Prod, 2010)

Assays:
Type in all cases: functional
UO-31 = experiment: Antiproliferative activity against human UO31 cells assessed as cell growth at 50 uM by SRB assay; conditions: read-out: Activity
SNB-19 = experiment: Antiproliferative activity against human SNB19 cells by SRB assay
CAKI-1 [1] = experiment: Antiproliferative activity against human Caki1 cells assessed as cell growth at 5 uM by SRB assay; conditions: read-out: Activity
DU-145 = experiment: Antiproliferative activity against human DU145 cells by SRB assay
U-251 = experiment: Antiproliferative activity against human U251 cells assessed as cell growth at 500 uM by SRB assay; conditions: read-out: Activity
OVCAR-4 = experiment: Antiproliferative activity against human OVCAR4 cells assessed as cell growth at 50 uM by SRB assay; conditions: read-out: Activity
[2] = Antiproliferative activity against human […] cells assessed as cell growth at 50 uM by SRB assay; conditions: read-out: Activity
LOX IMVI [3] = experiment: Antiproliferative activity against human LOXIMVI cells assessed as cell growth at 50 uM by SRB assay; conditions: read-out: Activity
SR = experiment: Antiproliferative activity against human SR cells assessed as cell growth at 50 uM by SRB assay; conditions: read-out: Activity
A498 = experiment: Antiproliferative activity against human A498 cells assessed as cell growth at […] by SRB assay; conditions: read-out: Activity
SF-539 [4] = experiment: Antiproliferative activity against human SF539 cells by SRB assay
NCI-H522 [5] = experiment: Antiproliferative activity against human NCI-H522 cells assessed as cell growth at 500 uM by SRB assay; conditions: read-out: Activity
MDA-MB-435 [6] = experiment: Antiproliferative activity against human MDA-MB-435 cells assessed as cell growth at 5 mM by SRB assay; conditions: read-out: Activity
HCC 2998 = experiment: Antiproliferative activity against human HCC2998 cells assessed as cell growth at 5 uM by SRB assay; conditions: read-out: Activity
IGROV-1 = experiment: Antiproliferative activity against human IGROV1 cells assessed as cell growth at 50 uM by SRB assay; conditions: read-out: Activity
HL-60(TB) = experiment: Antiproliferative activity against human HL-60(TB) cells by SRB assay
NCI-H322M = experiment: Antiproliferative activity against human NCI-H322M cells assessed as cell growth at 5 uM by SRB assay; conditions: read-out: Activity
MCF7 = experiment: Antiproliferative activity against human MCF7 cells assessed as cell growth at 5 mM by SRB assay; conditions: read-out: Activity
LOX IMVI [7] = experiment: Antiproliferative activity against human LOXIMVI cells assessed as cell growth at 5 uM by SRB assay; conditions: read-out: Activity
SF-539 [8] = experiment: Antiproliferative activity against human SF539 cells assessed as cell growth at 50 uM by SRB assay; conditions: read-out: Activity
TK-10 [9] = experiment: Antiproliferative activity against human TK10 cells by SRB assay
TK-10 [10] = experiment: Antiproliferative activity against human TK10 cells assessed as cell growth at 500 uM by SRB assay; conditions: read-out: Activity
KM12 = experiment: Antiproliferative activity against human KM12 cells assessed as cell growth at 500 uM by SRB assay; conditions: read-out: Activity
SNB-75 = experiment: Antiproliferative activity against human SNB75 cells assessed as cell growth at 5 uM by SRB assay; conditions: read-out: Activity
OVCAR-8 [11] = experiment: Antiproliferative activity against human OVCAR8 cells assessed as cell growth at 50 uM by SRB assay; conditions: read-out: Activity
SK-MEL-5 = experiment: Antiproliferative activity against human SK-MEL-5 cells assessed as cell growth at 500 uM by SRB assay; conditions: read-out: Activity
MDA-MB-231 = experiment: Antiproliferative activity against human MDA-MB-231 cells by SRB assay
SN12C = experiment: Antiproliferative activity against human SN12C cells assessed as cell growth at 0.5 uM by SRB assay; conditions: read-out: Activity
NCI-H23 = experiment: Antiproliferative activity against human NCI-H23 cells assessed as cell growth at 5 uM by SRB assay; conditions: read-out: Activity
UACC-257 = experiment: Antiproliferative activity against human UACC257 cells by SRB assay
HCT-116 = experiment: Antiproliferative activity against human HCT116 cells assessed as cell growth at 5 uM by SRB assay; conditions: read-out: Activity
786-0 = experiment: Antiproliferative activity against human 786-0 cells by SRB assay
CAKI-1 [12] = experiment: Antiproliferative activity against human Caki1 cells assessed as cell growth at 50 uM by SRB assay; conditions: read-out: Activity
NCI-H522 [13] = experiment: Antiproliferative activity against human NCI-H522 cells assessed as cell growth at 5 mM by SRB assay; conditions: read-out: Activity
MDA-MB-435 [14] = experiment: Antiproliferative activity against human MDA-MB-435 cells assessed as cell growth at 500 uM by SRB assay; conditions: read-out: Activity
CCRF-CEM = experiment: Antiproliferative activity against human CCRF-CEM cells assessed as cell growth at […] by SRB assay; conditions: read-out: Activity
A549 = experiment: Antiproliferative activity against human A549 cells by SRB assay
TK-10 [15] = experiment: Antiproliferative activity against human TK10 cells assessed as cell growth at 50 uM by SRB assay; conditions: read-out: Activity
HOP-62 = experiment: Antiproliferative activity against human HOP62 cells assessed as cell growth at 50 uM by SRB assay; conditions: read-out: Activity
ACHN = experiment: Antiproliferative activity against human ACHN cells assessed as cell growth at 5 uM by SRB assay; conditions: read-out: Activity
OVCAR-8 [16] = experiment: Antiproliferative activity against human OVCAR8 cells assessed as cell growth at 5 uM by SRB assay; conditions: read-out: Activity
[17] = read-out: LC50 (the source's name)
[18] = read-out: pLC50 (the source's name) (converted)

SMILES: O=C(/C=C/c1ccc(O)c(O)c1)OCCc1ccc(O)c(O)c1
- growth at 50 µM (UO-31): 82%
- GI50 (SNB-19; read-out: GI50): 15.5 µM
- CC50 (SNB-19; [17]): > 50 µM
- TGI (SNB-19; read-out: TGI): > 50 µM
- GI50 (SNB-19; read-out: pGI50 (converted)): 15.5 µM
- CC50 (SNB-19; [18]): > 50.1 µM
- TGI (SNB-19; read-out: pTGI): > 50.1 µM
- growth at 5 µM (CAKI-1 [1]): 83%
- GI50 (DU-145; read-out: GI50): 9.75 µM
- CC50 (DU-145; [17]): > 50 µM
- GI50 (DU-145; read-out: pGI50 (converted)): 9.77 µM
- CC50 (DU-145; [18]): > 50.1 µM
- TGI (DU-145; read-out: pTGI (converted)): 30.2 µM
- growth at 500 µM (U-251): 65%
- growth at 50 µM (OVCAR-4): 92%
- growth at 50 µM [2]: 54%
- growth at 50 µM (LOX IMVI [3]): 98%
- growth at 50 µM (SR): 77%
- growth (A498): -11%
- GI50 (SF-539 [4]; read-out: GI50): 5.83 µM
- CC50 (SF-539 [4]; [17]): > 50 µM
- TGI (SF-539 [4]; read-out: TGI): 24.2 µM
- GI50 (SF-539 [4]; read-out: pGI50 (converted)): 5.89 µM
- CC50 (SF-539 [4]; [18]): > 50.1 µM
- TGI (SF-539 [4]; read-out: pTGI (converted)): 24 µM
- growth at 500 µM (NCI-H522 [5]): 10%
- growth at 5000 µM (MDA-MB-435 [6]): 17%
- growth at 5 µM (HCC 2998): 107%
- growth at 50 µM (IGROV-1): 98%
- GI50 (HL-60(TB); read-out: GI50): 2.54 µM
- CC50 (HL-60(TB); [17]): > 50 µM
- TGI (HL-60(TB); read-out: TGI): 17.7 µM
- GI50 (HL-60(TB); read-out: pGI50 (converted)): 2.63 µM
- CC50 (HL-60(TB); [18]): > 50.1 µM
- TGI (HL-60(TB); read-out: pTGI (converted)): 17.8 µM
- growth at 5 µM (NCI-H322M): 92%
- growth at 5000 µM (MCF7): 5%
- growth at 5 µM (LOX IMVI [7]): 101%
- growth at 50 µM (SF-539 [8]): 89%
- GI50 (TK-10 [9]; read-out: GI50): 28.1 µM
- CC50 (TK-10 [9]; [17]): > 50 µM
- TGI (TK-10 [9]; read-out: TGI): > 50 µM
- GI50 (TK-10 [9]; read-out: pGI50 (converted)): 28.2 µM
- CC50 (TK-10 [9]; [18]): > 50.1 µM
- TGI (TK-10 [9]; read-out: pTGI): > 50.1 µM
- growth at 500 µM (TK-10 [10]): 81%
- growth at 500 µM (KM12): 59%
- growth at 5 µM (SNB-75): 75%
- growth at 50 µM (OVCAR-8 [11]): 78%
- growth at 500 µM (SK-MEL-5): 64%
- GI50 (MDA-MB-231; read-out: GI50): 11.1 µM
- CC50 (MDA-MB-231; [17]): > 50 µM
- TGI (MDA-MB-231; read-out: TGI): > 50 µM
- GI50 (MDA-MB-231; read-out: pGI50 (converted)): 10.5 µM
- CC50 (MDA-MB-231; [18]): > 50.1 µM
- TGI (MDA-MB-231; read-out: pTGI): > 50.1 µM
- growth at 0.5 µM (SN12C): 74%
- growth at 5 µM (NCI-H23): 95%
- GI50 (UACC-257; read-out: GI50): 15.4 µM
- CC50 (UACC-257; [17]): > 50 µM
- TGI (UACC-257; read-out: TGI): > 50 µM
- GI50 (UACC-257; read-out: pGI50 (converted)): 15.5 µM
- CC50 (UACC-257; [18]): > 50.1 µM
- TGI (UACC-257; read-out: pTGI): > 50.1 µM
- growth at 5 µM (HCT-116): 97%
- GI50 (786-0; read-out: GI50): 13.5 µM
- CC50 (786-0; [17]): > 50 µM
- TGI (786-0; read-out: TGI): > 50 µM
- GI50 (786-0; read-out: pGI50 (converted)): 13.5 µM
- CC50 (786-0; [18]): > 50.1 µM
- TGI (786-0; read-out: pTGI): > 50.1 µM
- growth at 50 µM (CAKI-1 [12]): 88%
- growth at 5000 µM (NCI-H522 [13]): -30%
- growth at 500 µM (MDA-MB-435 [14]): 48%
- growth (CCRF-CEM): -44%
- GI50 (A549; read-out: GI50): 17.7 µM
- CC50 (A549; [17]): > 50 µM
- TGI (A549; read-out: TGI): > 50 µM
- GI50 (A549; read-out: pGI50 (converted)): 17.8 µM
- CC50 (A549; [18]): > 50.1 µM
- TGI (A549; read-out: pTGI): > 50.1 µM
- growth at 50 µM (TK-10 [15]): 94%
- growth at 50 µM (HOP-62): 97%
- growth at 5 µM (ACHN): 95%
- growth at 5 µM (OVCAR-8 [16]): 79%
